Values quoted from earlier work in paper PMC7395068, “The evolution of strategies to minimise the risk of human drug-induced liver injury (DILI) in drug discovery and development” (Archives of Toxicology, 2020).
Where two headings read alike, the source gives them in different places.

Tests used:
HepG2 cells [1] = conditions: cited from earlier work
human hepatocytes = conditions: cited from earlier work
[2] = cited from earlier work
[3] = test system: isolated mouse liver mitochondria; conditions: cited from earlier work
[4] = cited from earlier work; remark: listed apart in the source
HepG2 cells [5] = conditions: In vitro Assay; ref Persson 2013; cited from earlier work
[6] = test system: THLE or HepG2 cells, isolated mitochondria, BSEP; conditions: cited from earlier work
[7] = test system: primary human hepatocytes, NIH3T3 fibroblasts, BSEP, CYP3A4; conditions: cited from earlier work
[8] = In vitro Assay, ref O'Brien 2006
[9] = In vitro Assay, ref Porceddu 2012
[10] = In vitro Assay, ref Schadt 2015

Molecule	Structural based (HCI) (HepG2 cells [1]; [8])	Structural based (HCI) (human hepatocytes; In vitro Assay, ref Xu 2008)	In vivo DILI ([2]; ref O'Brien 2006)	In vivo DILI ([2]; ref Xu 2008)	DILI +VE (5-8), DILI -VE (-4) ([4]; ref Chen 2016)	DILI severity category ([4]; ref Chen 2016)	Cluser analysis (HepG2 cells [5])	Structural based (HCI) (HepG2 cells [5])	Partition Hybrid HRM Score ([6]; In vitro Assay, ref Aleo 2019)	Ro2 Hybrid HRM Score ([6]; In vitro Assay, ref Aleo 2019)	In vivo DILI ([2]; ref Persson 2013)	other results
CCCCN1CCCCC1C(=O)Nc1c(C)cccc1C (stereo not drawn) [bupivacaine]	+VE (lowest HCI endpoint IC50 (or in the absence of dose–response < 100 µM) < 30 × total human plasma exposure levels (Cmax.tot))	-VE	-VE	-VE								In vivo DILI ([2]; ref Porceddu 2012): +VE; in vitro data EC2<=1x Cmax [3, 9]: -VE; in vitro data EC20<=2uM [3, 9]: -VE
C[C@@](Cc1ccc(O)c(O)c1)(NN)C(=O)O [carbidopa]	-VE	-VE	-VE	-VE	-VE	Ambiguous DILI-concern	-VE	-VE	-VE	-VE	-VE	
COc1cc(N)c(Cl)cc1C(=O)NC1CCN(CCCOc2ccc(F)cc2)CC1OC (stereo not drawn) [cisapride]	+VE	-VE	-VE	-VE			-VE	-VE			-VE	In vivo DILI ([2]; […]): -VE
C[N+](C)(C)CCOP(=O)(O)OP(=O)([O-])OC[C@H]1O[C@@H](n2ccc(N)nc2=O)[C@H](O)[C@@H]1O [citicoline]	+VE (lowest HCI endpoint IC50 (or in the absence of dose–response < 100 µM) < 30 × total human plasma exposure levels (Cmax.tot))		-VE				-VE	-VE			-VE	
CCOC(=O)C(C)(C)Oc1ccc(Cl)cc1 [clofibrate]	+VE		+VE		+VE	vLess-DILI-Concern	-VE	-VE	+VE	+VE	+VE	In vivo DILI ([2]; […]): -VE; In vivo DILI ([2]; ref Aleo 2019): +VE
COc1cccc2c1C(=O)c1c(O)c3c(c(O)c1C2=O)C[C@@](O)(C(=O)CO)C[C@@H]3O[C@H]1C[C@H](N)[C@H](O)[C@H](C)O1 [doxorubicin]	+VE		+VE		+VE	vLess-DILI-Concern						Cellular toxicity (3T3 cells) [7, 10]: +VE; GSH adduct HML [7, 10]: -VE; Hepatocyte cellular toxicity [7, 10]: -VE; MitoTox 3T3 [7, 10]: -VE; TDI CYP3A4 [7, 10]: -VE; hBSEP inhibition [7, 10]: -VE; In vivo DILI ([2]; […]): +VE; In vivo DILI ([2]; ref Porceddu 2012): +VE; In vivo DILI ([2]; ref Schadt 2015): -VE; in vitro data EC2<=1x Cmax [3, 9]: +VE; in vitro data EC20<=2uM [3, 9]: +VE
O=C1Nc2ccc(Cl)cc2[C@@](C#CC2CC2)(C(F)(F)F)O1 [efavirenz]	+VE (lowest HCI endpoint IC50 (or in the absence of dose–response < 100 µM) < 30 × total human plasma exposure levels (Cmax.tot))		+VE		+VE	vMost-DILI-Concern	+VE	+VE			+VE	
CNC(=O)Oc1ccc2c(c1)[C@]1(C)CCN(C)[C@@H]1N2C [eserine]	+VE (lowest HCI endpoint IC50 (or in the absence of dose–response < 100 µM) < 30 × total human plasma exposure levels (Cmax.tot))	-VE	-VE	-VE			-VE	-VE			-VE	
CCC1=C(C)CN(C(=O)NCCc2ccc(S(=O)(=O)NC(=O)N[C@H]3CC[C@H](C)CC3)cc2)C1=O [glimepiride]	-VE	-VE	-VE	-VE	+VE	vLess-DILI-Concern	-VE	-VE	-VE	-VE	-VE	In vivo DILI ([2]; ref Aleo 2019): +VE; In vivo DILI ([2]; ref Porceddu 2012): +VE; in vitro data EC2<=1x Cmax [3, 9]: -VE; in vitro data EC20<=2uM [3, 9]: +VE
O=[N+]([O-])O[C@H]1CO[C@H]2[C@@H]1OC[C@H]2O[N+](=O)[O-] [isosorbide dinitrate]	+VE (lowest HCI endpoint IC50 (or in the absence of dose–response < 100 µM) < 30 × total human plasma exposure levels (Cmax.tot))		-VE		-VE	vNo-DILI-Concern	-VE	-VE			-VE	
O=C(CCNNC(=O)c1ccncc1)NCc1ccccc1 [nialamide]	+VE (lowest HCI endpoint IC50 (or in the absence of dose–response < 100 µM) < 30 × total human plasma exposure levels (Cmax.tot))		-VE		+VE	vMost-DILI-Concern	-VE	-VE			-VE	
CO[C@@H]1[C@@H](OC(N)=O)[C@@H](O)[C@H](Oc2ccc3c(O)c(NC(=O)c4ccc(O)c(CC=C(C)C)c4)c(=O)oc3c2C)OC1(C)C [novobiocin]	-VE	+VE	+VE	+VE			-VE	-VE			+VE	In vivo DILI ([2]; ref Porceddu 2012): +VE; in vitro data EC2<=1x Cmax [3, 9]: -VE; in vitro data EC20<=2uM [3, 9]: +VE
CC[N+](C)(CC)CCOC(=O)C(O)(c1ccccc1)C1CCCCC1 (stereo not drawn) [oxyphenonium]	-VE	-VE	-VE	-VE			-VE	-VE			-VE	
CC[C@H](C)C(=O)O[C@H]1C[C@H](O)C=C2C=C[C@H](C)[C@H](CC[C@@H](O)C[C@@H](O)CC(=O)O)[C@H]21 [pravastatin]	-VE		+VE		+VE	vLess-DILI-Concern			+VE	-VE		In vivo DILI ([2]; […]): -VE; In vivo DILI ([2]; ref Aleo 2019): +VE; In vivo DILI ([2]; ref Porceddu 2012): +VE; in vitro data EC2<=1x Cmax [3, 9]: -VE; in vitro data EC20<=2uM [3, 9]: -VE
CCc1nc(N)nc(N)c1-c1ccc(Cl)cc1 [pyrimethamine]	+VE	+VE	+VE	+VE	+VE	vLess-DILI-Concern						Cellular toxicity (3T3 cells) [7]: -VE; Combined Assay [7]: -VE; GSH adduct HML [7]: -VE; Hepatocyte cellular toxicity [7]: -VE; MitoTox 3T3 [7]: -VE; TDI CYP3A4 [7]: -VE; hBSEP inhibition [7]: -VE; In vivo DILI ([2]; ref Schadt 2015): -VE
Cc1ncc(C[n+]2csc(CCO)c2C)c(N)n1 [thiamine]	+VE (lowest HCI endpoint IC50 (or in the absence of dose–response < 100 µM) < 30 × total human plasma exposure levels (Cmax.tot))		-VE		-VE	vNo-DILI-Concern	-VE	-VE			-VE	
CC1(C)O[C@@H]2[C@@H](CO[C@@]3(COS(N)(=O)=O)OC(C)(C)O[C@@H]23)O1 [topiramate]	+VE (lowest HCI endpoint IC50 (or in the absence of dose–response < 100 µM) < 30 × total human plasma exposure levels (Cmax.tot))		-VE		+VE	vLess-DILI-Concern	-VE	-VE			-VE	
COc1cc(C(=O)NS(=O)(=O)c2ccccc2C)ccc1Cc1cn(C)c2ccc(NC(=O)OC3CCCC3)cc12 [zafirlukast]	+VE	-VE	+VE	+VE	+VE	vMost-DILI-Concern			+VE	+VE		In vivo DILI ([2]; […]): +VE; In vivo DILI ([2]; ref Aleo 2019): +VE
Nc1ccn([C@H]2CC[C@@H](CO)O2)c(=O)n1 [zalcitabine]	-VE	-VE	-VE	-VE					-VE	-VE		In vivo DILI ([2]; ref Aleo 2019): +VE
Cc1cn([C@H]2C[C@H](N=[N+]=[N-])[C@@H](CO)O2)c(=O)[nH]c1=O [zidovudine]												DILI severity category ([4]; in vivo): vMost-DILI-Concern; Structural based (HCI) (HepG2 cells [1]): +VE; Structural based (HCI) (human hepatocytes): -VE; Partition Hybrid HRM Score [6]: -VE; Ro2 Hybrid HRM Score [6]: -VE; in vitro data EC2<=1x Cmax [3, 9]: +VE; in vitro data EC20<=2uM [3]: -VE
cyanocobalamin	-VE	-VE	-VE	-VE					-VE	-VE		DILI +VE (5-8), DILI -VE (-4) ([4]; in vivo): -VE; DILI severity category ([4]; in vivo): vNo-DILI-Concern; In vivo DILI ([2]; ref Aleo 2019): -VE
